Measured values: patent US20210393621A1, “COMBINATION SEROTONIN SPECIFIC REUPTAKE INHIBITOR AND SEROTONIN 1A RECEPTOR PARTIAL AGONIST FOR REDUCING L-DOPA-INDUCED DYSKINESIA” (The Research Foundation for The State University of new York, priority 2018, published 2021)
Entries after “also recorded” stand apart in the source; their conditions may differ. Where two headings read alike, the source gives them in different places.

Legend:
[1] = system: extracellular 5-HT, dopamine and norepinephrine; conditions: cited from earlier work; for extracellular dopamine and norepinephrine: rat brain, vilazodone 1 and 10 mg/kg; for maximal increase of extracellular 5-HT: rats, acute systemic injection, measured 3 h after injection
[2] = system: DRN 5-HT neurons; assay: Example 3: in vivo single-unit recordings of DRN 5-HT neurons; design: species or system rats
[3] = target: T1, 5-HT1A receptor (Homo sapiens, UniProt P08908); design: expressed in transfected cells; host or cells: SF9 cells; conditions: 5-HT1A receptor expressed in SF9 cells; cited from earlier work
T1 sequence (P08908 1-422): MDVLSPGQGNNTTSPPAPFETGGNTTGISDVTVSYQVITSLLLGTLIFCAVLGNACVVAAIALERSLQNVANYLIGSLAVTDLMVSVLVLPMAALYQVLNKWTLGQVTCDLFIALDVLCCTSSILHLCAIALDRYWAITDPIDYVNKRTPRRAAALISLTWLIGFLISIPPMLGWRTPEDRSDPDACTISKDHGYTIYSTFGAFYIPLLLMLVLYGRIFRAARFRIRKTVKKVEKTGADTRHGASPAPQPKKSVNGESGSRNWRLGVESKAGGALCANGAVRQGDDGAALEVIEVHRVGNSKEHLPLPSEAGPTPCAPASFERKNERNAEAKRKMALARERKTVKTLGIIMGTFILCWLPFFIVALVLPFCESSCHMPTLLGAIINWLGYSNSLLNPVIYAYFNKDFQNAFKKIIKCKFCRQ

[4] = system: unilateral 6-OHDA-lesioned rats; assay: Example 2: stepping test; format: in vivo, Sprague-Dawley rats; conditions: vilazodone 10 mg/kg or escitalopram 12.5 mg/kg + L-DOPA 5 mg/kg; 60 minutes post L-DOPA
Protocol: 6-OHDA-induced dopaminergic lesions: Adult male Sprague-Dawley rats were randomly assigned to groups receiving either a 6-OHDA or sham lesion. All rats received desipramine (10 mg/kg i.p.) 30 min prior to surgery to prevent the lesioning of norepinephrine neurons by 6-OHDA. A single injection of 6-OHDA (8 μg of 6-OHDA free base in 4 μl of 0.1% ascorbic acid) was delivered into the right medial forebrain bundle (coordinates taken from bregma: −4.3 mm AP, 1.6 mm ML, −8.3 mm DV). The same experimental treatment was performed for the sham-operated rats using vehicle (4 μl of 0.1% ascorbic acid). A standard stepping test was used to evaluate the effectiveness of the 6-OHDA lesion.
Rats were treated for 5 consecutive days/week (Mon-Fri), for 2 weeks. On the second day of each week, stepping tests were performed prior to drug administration, and 60 minutes post L-DOPA treatment.

[5] = system: unilateral 6-OHDA-lesioned rats; assay: Example 2: L-DOPA-induced dyskinesias (LIDs) scoring; format: in vivo, Sprague-Dawley rats
Protocol: 6-OHDA-induced dopaminergic lesions: Adult male Sprague-Dawley rats were randomly assigned to groups receiving either a 6-OHDA or sham lesion. […] [[…] 2019]. […] Rats were treated for 5 consecutive days/week (Mon-Fri), for 2 weeks. […] All rats were evaluated three times per week for the presence of L-DOPA-induced dyskinesias (LIDs) (Wed-Fri) and once for the stepping test (Tue). […] Scores were given over 1 min epochs and classified as axial, limb, orolingual and locomotive. […] Arrows=inhibitory input; dashed arrows=compromised function. The severity of each LID was scored using a standard scale. Each dyskinetic behavior was given an intensity and frequency score, which were then multiplied. The average sum of the products of each LID was determined in each animal.

[6] = system: 6-OHDA-lesioned hemi-parkinsonian rats; assay: Experiment 1: forepaw adjusting steps (FAS); format: in vivo, Sprague-Dawley rats; conditions: L-DOPA-primed rats; VZD 0, 10 or 20 mg/kg + L-DOPA 6 mg/kg; 60 min post-L-DOPA
Description: (§1) Conti et al., 2014). […] Forepaw adjusting steps (FAS): The FAS test is a measure of forelimb akinesia performed according to previous protocols (Bishop et al., 2012; Chang et al., 1999). Data are presented as mean percent intact stepping where the sum of the total steps with the lesioned forepaw was divided by the total steps with the unlesioned forepaw multiplied by 100. Lower percent intact scores indicate greater forelimb akinesia. Prior to baseline, rats received 2 acclimation periods. On-treatment FAS was performed 60 min post-L-DOPA.

[7] = system: striatal c-Fos, PPD, PPE, PPT and 5-HT1AR mRNA; assay: Experiment 2: real-time RT-PCR of striatal gene expression
[8] = dry and wet AMD; patients taking versus not taking L-DOPA; cited from earlier work
[9] = in vivo; cited from earlier work
[10] = system: 6-OHDA-lesioned hemi-parkinsonian rats; assay: Experiment 2: forepaw adjusting steps (FAS); format: in vivo, Sprague-Dawley rats; conditions: L-DOPA-naive rats; VZD 0, 10 or 20 mg/kg + L-DOPA 6 mg/kg; Days 1, 8, 15, 22
Protocol: as §1, with “[…].). All VZD injections were administered 5 min prior to LD. […] AIMs values expressed are the median sum of axial, limb, and orolingual (ALO) behaviors. […] Values are expressed as medians [±median absolute difference (M.A.D.)].” for “Conti et al., 2014).”

[11] = system: striatal and raphe tissue monoamines; assay: Experiment 1: HPLC of tissue monoamines and metabolites in striatum and dorsal raphe nucleus; conditions: for 5-HIAA / 5-HT / 5-HT Turnover / DA / DA Turnover / DOPAC: Striatum, VZD(0) + LD(6) mg/kg, 60 min post-LD
Protocol: Three-weeks post-lesion, animals were divided into 2 equally disabled groups, measured by forepaw adjusting steps (FAS, see below). One group (n=8) began receiving 14 days of daily vehicle (0.9% NaCl+0.1% ascorbic acid) and the other (n=22) received L-DOPA methyl ester (6 mg/kg, s.c.; Sigma)+DL-serine 2-(2,3,4-trihydroxybenzyl) hydrazine hydrochloride (benserazide; 15 mg/kg, s.c.; Sigma), hereafter L-DOPA, dissolved in vehicle at a volume of 1 mg/kg. Treatment persisted for 14 days to produce stable AIMs expression (Putterman et al., 2007; Conti et al., 2014). Thereafter, L-DOPA-treated animals with Axial, Limb, and Orolingual (ALO) AIMs (see description below, FIG. 1A)<30 were excluded from the study and the remaining L-DOPA-treated animals were divided into 3 equally dyskinetic groups. […] Daily injections continued over 23 days, with behavior assayed on Days 15, 22, 29, and 36. On Day 37, animals were killed 60 min post-treatment Left and right dorsal striata and DRN were dissected and flash frozen for HPLC analyses.
High-performance liquid chromatography (HPLC): HPLC, a method for semi-automated catecholamine analysis with coulometric detection, was performed according to prior protocols (Bishop et al., 2009) to determine the tissue levels of monoamines, their metabolites, and monoamine turnover in the striatum and DRN. The limit of detection for DOPAC, DA, 5-hydroxyindoleacetic acid (5-HIAA) and 5-HT was 10^−10 M. Final oxidation current values were plotted on a standard curve from 10^−6 M to 10^−9 M and expressed as pg of monoamine or metabolite per mg of tissue unless otherwise specified.
On the final treatment day, animals were sacrificed 60 min post-LD treatment and left and right striata and dorsal raphe nucleus (DRN) were collected for high performance liquid chromatography (HPLC) analysis. Values (means±standard mean error) are expressed as picograms of monoamine or metabolite per milligram wet tissue weight. Turnover estimates were determined by dividing a subjects metabolite value by its corresponding monoamine. Differences were assessed by a 2×4 (lesion×treatment) ANOVA, followed by Fisher's LSD post-hocs when appropriate. *p<0.01 vs lesion vs intact; +p<0.05 vs all; ^p<0.05 vs VZD (0)+LD (0); #p<0.05 vs VZD (0)+LD (6)

[12] = target: 5HT2A; conditions: rat cerebral cortex; read-out: affinity Ki; cited from earlier work
[13] = system: L-DOPA-primed 6-OHDA-lesioned rats; assay: Experiment 3: AIMs with 5-HT1AR or 5-HT1BR antagonist before Vilazodone and L-DOPA; format: in vivo, Sprague-Dawley rats; conditions: then VZD 0 or 10 mg/kg, then L-DOPA 6 mg/kg, s.c.
Protocol: In each study, the LD-primed rats received (FIG. 4A) the 5-HT1AR antagonist WAY100635 [WAY; 0 or 0.5 mg/kg, s.c.] or (FIG. 4B) the 5-HT1BR antagonist NAS [NAS; 0 or 0.3 mg/kg, s.c.]) 5 min prior to VZD (0 or 10 mg/kg, s.c.) injected 5 min prior to LD (6 mg/kg, s.c.) in a within-subjects counterbalanced design. ALO AIMs were evaluated and are shown for every 10 min for 3 h after LD administration.
All 6-OHDA-lesioned rats (n=17) were tested on the FAS prior to treatment regimens to establish baseline motor performance. Three-weeks post-surgery, all rats were primed with L-DOPA (6 mg/kg, s.c.) for 14 days.
Beginning 10 min post-treatment, a trained and blinded observer assigned a severity score (0-4) to each of the ALO AIMs based on 1 min ratings every 10 min for 3 h: 0, not present; 1, present from 1-29 s; 2, present 30-59 s; 3, present all 60 s, but interruptible by a cylinder tap; 4, present 60 s and not interruptible by a cylinder tap.

[14] = lesioned striata, VZD 0, 10 or 20 mg/kg + L-DOPA 6 mg/kg daily, day 23, 60 min post-injection

In the case of `Br.CCCN(CCC)C1CCc2cccc(O)c2C1` (centres unmarked) [8-OH-DPAT, 8-hydroxy-2-(dipropylamino) tetralin hydrobromide], the “extracellular dopamine and norepinephrine” value [1] is listed as “caused an increase”, the “spontaneous firing of DRN 5-HT neurons” value ([2]; rat, in vivo, iv) is listed as “suppressed the spontaneous firing of a DRN neuron” and the “increase of [35S]GTPγS binding compared to vehicle” value [3] is listed as “eightfold”.
In the case of `CN(C)CCC[C@@]1(c2ccc(F)cc2)OCc2cc(C#N)ccc21` [Escitalopram], the “forelimb akinesia and L-DOPA prokinetic / therapeutic efficacy (stepping test)” value [4] is reported as “affected L-DOPA therapeutic efficacy; also recorded: interfered with the therapeutic efficacy of L-DOPA” and the “LIDs score / severity” value ([5]; pretreatment with vilazodone 10 mg/kg or escitalopram 12.5 mg/kg before L-DOPA 5 mg/kg, 2 weeks) is reported as “significantly reduced LIDs severity; also recorded: significant reduction in total LIDs score”.
For `N[C@@H](Cc1ccc(O)c(O)c1)C(=O)O` [L-DOPA, L-3,4-dihydroxyphenylalanine], the “FAS motor performance versus baseline” value [6] was “significant improvements on motor performance over baseline”, the “striatal PPT mRNA” value ([7]; FIG. 6B) was “did not increase striatal PPT” and the “striatal PPE mRNA” value ([7]; lesioned striata, L-DOPA 6 mg/kg, Vilazodone 20 mg/kg) was “significantly increased PPE”. The “striatal PPD mRNA” value [7, 14] was “significantly increased PPD”, the “striatal c-Fos mRNA” value [7, 14] was “potentiated c-Fos” and the “delay of onset of AMD” value [8] was “around 8 years”. For the same compound, the “fraction that crosses the blood-brain barrier” value [9] was 5-10%, the “FAS stepping relative to baseline” value [10] was “significant increases in motor ability on each test day” and the “DRN levels of DA, DOPAC and DA Turnover” value ([11]; L-DOPA 6 mg/kg) was “significantly increased DRN levels of DA, DOPAC and DA Turnover”. The 5-HIAA ([11]; Intact) was 650 ± 68.9 picograms per milligram wet ti, the 5-HT ([11]; Intact) was 241 ± 29.6^ picograms per milligram wet ti and the “5-HT Turnover” value ([11]; Intact) was 2.77 ± 0.15+. The DA ([11]; Intact) was 4561 ± 210 picograms per milligram wet ti, the “DA Turnover” value ([11]; Intact) was 0.89 ± 0.04 and the DOPAC ([11]; Intact) was 4051 ± 224 picograms per milligram wet ti. For the same compound, the 5-HIAA ([11]; Lesion) was 907 ± 82.5 picograms per milligram wet ti, the 5-HT ([11]; Lesion) was 264 ± 39.6 picograms per milligram wet ti and the “5-HT Turnover” value ([11]; Lesion) was 3.93 ± 0.63. The DA ([11]; Lesion) was 83.3 ± 7.99 picograms per milligram wet ti, the “DA Turnover” value ([11]; Lesion) was 1.42 ± 0.23 and the DOPAC ([11]; Lesion) was 127 ± 30.7 picograms per milligram wet ti.
In the case of `O=S1(=O)N(CCN2CC=C(c3c[nH]c4cc(F)ccc34)CC2)c2cccc3c2N1CCC3` [LY367265], the Ki [12] is listed as 490 nM.
In the case of `c1ccc2c(c1)OC[C@H](CNCCCOc1ccc3c(c1)OCO3)O2` [MKC-242], the “extracellular dopamine and norepinephrine” value [1] is listed as “caused an increase”.
For `C1=C(CN2CCOCC2)COc2c1cccc2OC[C@H]1CNCCO1.CS(=O)(=O)O` [NAS-181, (R)-(+)-2-(3-morpholinomethyl-2H-chromen-8-yl) oxymethyl-morpholine methane-sulfonate], the “ALO AIMs, 5-HT1BR study” value ([13]; NAS-181 0 or 3.0 mg/kg) was “did not significantly alter AIMs or their reduction by Vilazodone”.
With `COc1ccccc1N1CCN(CCN(C(=O)C2CCCCC2)c2ccccn2)CC1.O=C(O)/C=C\C(=O)O` [WAY100635, N-[2-[4(2-Methoxyphenyl)-1-piperazinyl]ethyl]-N-2-pyridinylcyclohexanecarboxamide maleate salt] the “summed ALO AIMs, 5-HT1AR study” value ([13]; WAY100635 0 or 0.5 mg/kg) was “partially reversed the anti-dyskinetic efficacy of Vilazodone”, the “spontaneous firing of DRN 5-HT neurons” value ([2]; i.v., 8-OH-DPAT then WAY-100635 100 μg/kg, BFP and D2Rs expressing rats) was “return to baseline firing was observed” and the “effect of 5-HT1A blockade on vilazodone's benefit on LIDs” value ([5]; WAY100635 with vilazodone + L-DOPA) was “reverses the beneficial effects of vilazodone on LIDs”.
In the case of `O=C1CC2(CCCC2)CC(=O)N1CCCCN1CCN(c2ncccn2)CC1` [buspirone], the “extracellular dopamine and norepinephrine” value [1] is listed as “caused an increase”.
In the case of `CNCCC(Oc1ccc(C(F)(F)F)cc1)c1ccccc1` (centres unmarked) [fluoxetine], the “maximal increase of extracellular 5-HT” value ([1]; frontal cortex) is given as 165% and the “maximal increase of extracellular 5-HT” value ([1]; ventral hippocampus) is given as 274%.
